Data: paper PMC6030096, “Synergy of Physico-chemical and Biological Experiments for Developing a Cyclooxygenase-2 Inhibitor” (Scientific Reports, 2018)

Columns and labels:
COX-2 = molecular target: T1, COX-2 (Homo sapiens, UniProt P35354); experiment: Human whole blood assay for COX-2 (LPS stimulated PGE2); assay type: cell-based; set-up: endogenous in cells; host or cells: human whole blood, aspirin-pretreated, LPS-stimulated
T1 sequence (P35354 18-604): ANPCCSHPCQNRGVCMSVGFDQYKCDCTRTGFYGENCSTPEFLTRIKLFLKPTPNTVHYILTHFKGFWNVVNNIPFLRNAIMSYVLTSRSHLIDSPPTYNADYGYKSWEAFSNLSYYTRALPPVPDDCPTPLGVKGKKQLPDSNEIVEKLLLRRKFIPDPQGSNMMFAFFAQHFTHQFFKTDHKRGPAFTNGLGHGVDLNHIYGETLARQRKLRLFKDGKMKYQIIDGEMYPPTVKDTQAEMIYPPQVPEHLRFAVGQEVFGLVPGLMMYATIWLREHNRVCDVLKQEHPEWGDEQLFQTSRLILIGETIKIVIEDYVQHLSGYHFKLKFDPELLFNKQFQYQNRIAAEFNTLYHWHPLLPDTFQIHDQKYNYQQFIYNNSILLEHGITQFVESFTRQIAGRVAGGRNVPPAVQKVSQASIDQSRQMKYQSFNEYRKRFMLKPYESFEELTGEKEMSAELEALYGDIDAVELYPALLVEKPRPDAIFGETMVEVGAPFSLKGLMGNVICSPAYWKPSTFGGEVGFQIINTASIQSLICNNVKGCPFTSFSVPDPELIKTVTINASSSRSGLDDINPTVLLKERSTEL
Description: (§1) The use of human blood for the whole blood assay was duly approved by the institutional ethical committee of the University for human subjects. Production of prostaglandin PGE2 during lipopolysaccharide (LPS) stimulated whole blood was used to quantify COX-2 inhibitory activity whereas calcium ionophore (A23187) stimulated thromboxane (TxB2) production was used to measure COX-1 inhibitory activity of the compounds.
COX-2 assay was performed by inactivating COX-1 with 50 µL aspirin (10 µg/mL) per 400 µL of blood sample.

[1] = molecular target: T2, 5-LOX (Soybean lipoxygenase) (Glycine max, UniProt P08170); experiment: Lipoxygenase inhibitory activity assay; assay type: biochemical
T2 construct: purchased Cayman Chemical Co. 760700
T2 sequence (P08170 1-839): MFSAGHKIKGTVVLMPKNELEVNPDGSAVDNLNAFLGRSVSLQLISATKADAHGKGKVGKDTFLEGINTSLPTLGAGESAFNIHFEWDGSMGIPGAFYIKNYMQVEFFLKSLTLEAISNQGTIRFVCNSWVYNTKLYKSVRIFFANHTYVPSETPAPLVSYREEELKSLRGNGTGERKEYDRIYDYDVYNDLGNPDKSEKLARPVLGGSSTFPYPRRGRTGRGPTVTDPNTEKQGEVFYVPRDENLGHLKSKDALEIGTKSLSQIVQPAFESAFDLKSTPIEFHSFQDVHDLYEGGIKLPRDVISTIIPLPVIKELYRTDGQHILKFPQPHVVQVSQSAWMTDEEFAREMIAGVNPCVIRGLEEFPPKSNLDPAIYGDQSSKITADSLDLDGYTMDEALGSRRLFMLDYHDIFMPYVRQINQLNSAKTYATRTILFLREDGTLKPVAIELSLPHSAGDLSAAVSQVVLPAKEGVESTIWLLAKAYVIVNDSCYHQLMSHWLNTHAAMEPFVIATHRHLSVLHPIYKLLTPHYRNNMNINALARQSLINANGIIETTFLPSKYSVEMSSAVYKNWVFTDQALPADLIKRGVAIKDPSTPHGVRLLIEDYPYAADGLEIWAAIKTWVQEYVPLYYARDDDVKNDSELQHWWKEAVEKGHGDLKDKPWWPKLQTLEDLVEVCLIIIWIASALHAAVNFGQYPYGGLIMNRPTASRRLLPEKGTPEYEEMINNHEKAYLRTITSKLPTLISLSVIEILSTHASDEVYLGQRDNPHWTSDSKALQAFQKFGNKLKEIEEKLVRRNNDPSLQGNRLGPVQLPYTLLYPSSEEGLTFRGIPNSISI
Description: 10 µL of the compound of each concentration was mixed with 90 µL 5-LOX (Soybean lipoxygenase in assay buffer) in the specified wells of the 96-well plate. Two wells containing assay buffer and AA acted as blanks whereas four wells, each carrying enzyme and AA, were positive controls. 10 µL AA was added to each test well and the plate was shaken for 5 min. Chromogen (100 µL) was added to each well and the plate was again shaken for 5 min. The absorbance of each well at 490 nm was recorded on microplate scanning spectrophotometer. As per the protocol given with the assay kit, the 5-LOX inhibitory activity for each compound at each concentration was determined using the mean of the two values (duplicate experiments) with deviation <5%.

[2] = test system: carrageenan-induced inflammation in rat; experiment: Carrageenan induced paw inflammation (pretreatment)
Description: In-vivo biological experiments were performed on male wistar rat (250–300 g). […] The animals were given free supply of food and water. The use of animals for the biological studies was duly permitted by the institutional animal ethical committee (IAEC) of the University. […] All the doses were administered intraperitoneally.
The paw thickness of the animals was measured with vernier callipre at 1 h intervals up to the 5th hour and compared with the control.
For anti-inflammatory activity, carageenan induced paw edema model with three groups of animals, 5 in each, were used[22]. All the drugs were administered intraperitoneally.

COX-1 [3] = molecular target: T3, COX-1 (Homo sapiens, UniProt P23219); experiment: Human whole blood assay for COX-1 (A23187 stimulated TxB2); assay type: cell-based
T3 construct: endogenous in cells; host or cells: human whole blood (heparinized, venipuncture)
T3 sequence (P23219 24-599): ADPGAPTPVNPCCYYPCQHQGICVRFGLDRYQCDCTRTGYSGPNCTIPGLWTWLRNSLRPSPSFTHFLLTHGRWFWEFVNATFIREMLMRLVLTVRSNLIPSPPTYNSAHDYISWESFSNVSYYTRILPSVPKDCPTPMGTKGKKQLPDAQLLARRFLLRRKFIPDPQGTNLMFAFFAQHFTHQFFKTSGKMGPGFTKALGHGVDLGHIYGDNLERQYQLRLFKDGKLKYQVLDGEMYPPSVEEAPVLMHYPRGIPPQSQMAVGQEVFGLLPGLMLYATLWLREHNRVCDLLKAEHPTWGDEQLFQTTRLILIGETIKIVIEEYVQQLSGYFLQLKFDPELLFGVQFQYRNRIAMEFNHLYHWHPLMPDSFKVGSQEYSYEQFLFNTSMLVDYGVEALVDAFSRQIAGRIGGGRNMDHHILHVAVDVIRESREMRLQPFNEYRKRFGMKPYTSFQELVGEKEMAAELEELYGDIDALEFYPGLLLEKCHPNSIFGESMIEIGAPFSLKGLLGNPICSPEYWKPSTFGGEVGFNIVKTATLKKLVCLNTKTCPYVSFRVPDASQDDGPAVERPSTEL
From the text: as §1
Approval for the use of human blood was taken from the institutional ethical committee of Guru Nanak Dev University Amritsar and informed consent was obtained from the subject[32],[33]. All experiments were performed in accordance with the relevant guidelines and regulations. By venipuncture, the blood sample was collected in heparinized tubes. […] Each sample in duplicate was assayed for TxB2 (the breakdown product of TxA2) using TXB2 Express ELISA kit (Cayman Chemicals, Ann Arbor, MI) by the reported protocol.

COX-1 [4] = molecular target: T4, COX-1 (Ovis aries, UniProt P05979); experiment: Isothermal titration calorimetry with COX-1; assay type: binding; settings: ITC
T4 construct: purchased Cayman Chemical Co. 560131
T4 sequence (P05979 25-600): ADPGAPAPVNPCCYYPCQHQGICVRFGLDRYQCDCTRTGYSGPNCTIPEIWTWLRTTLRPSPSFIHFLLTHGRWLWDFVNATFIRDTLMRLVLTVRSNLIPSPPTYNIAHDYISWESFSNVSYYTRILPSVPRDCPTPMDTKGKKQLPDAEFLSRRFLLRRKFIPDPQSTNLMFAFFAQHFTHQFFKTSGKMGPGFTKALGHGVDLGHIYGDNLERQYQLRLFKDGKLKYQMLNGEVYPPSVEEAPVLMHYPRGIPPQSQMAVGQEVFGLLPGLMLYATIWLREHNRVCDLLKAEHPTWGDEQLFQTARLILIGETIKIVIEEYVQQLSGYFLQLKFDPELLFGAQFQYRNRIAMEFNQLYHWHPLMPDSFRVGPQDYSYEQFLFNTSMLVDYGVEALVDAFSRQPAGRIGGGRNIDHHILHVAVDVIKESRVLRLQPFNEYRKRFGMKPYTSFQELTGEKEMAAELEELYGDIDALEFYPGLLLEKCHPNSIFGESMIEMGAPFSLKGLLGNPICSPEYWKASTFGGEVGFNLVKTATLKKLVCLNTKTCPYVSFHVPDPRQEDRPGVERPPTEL
Description: 100 µM solution of the compound in HPLC grade DMSO and Tris-HCl buffer (1:9) (pH 7.4) was prepared. 5 µL of enzyme was diluted with 500 µL Tris-HCl buffer. 19 consecutive injections of 2 µL each at 120 s interval were made to the enzyme solution taken in the sample cell. The heat change in the cell was determined. The control titrations for determining the background heat (that was subtracted from the main experiment) were performed by taking buffer solution in the cell and making successive additions of the titrant. The titration heat profiles and the binding parameters were read with Microcal software origin 7.0.

[5] = test system: carrageenan induced paw edema; experiment: Carrageenan induced paw edema, effect on pre-existing inflammation; assay type: in vivo, rat; settings: 10 mg kg^−1 ip 60 min after carrageenan
Description: Paw thickness (mm) was used as an index of inflammation and measured at 30 min, 1 h, 2 h, 3 h, 4 h, 5 h, 6 h, 8 h, and 24 h after the carrageenan injection.
Paw thickness (mm) was used as index of inflammation and measured at 30 min, 1 h, 2 h, 3 h, 4 h, 5 h, 6 h, 8 h, and 24 h after the carrageenan injection.

[6] = test system: acetic acid induced writhings in rat; experiment: Acetic acid induced writhing (analgesic activity); settings: ip
Description: In-vivo biological experiments were performed on male wistar rat (250–300 g). […] The animals were given free supply of food and water. […] Acetic acid induced algesia model and carragennan induced inflammatory model were used for these studies. […] All the doses were administered intraperitoneally.
Analgesic activity was studied using acetic acid induced writhing. Animals in 13 groups, each consisting of 5 animals, were used. Intraperitoneal administration of 0.6% acetic acid induced abdominal writhings that were characterized by arching of back, extension of hind limbs and contraction of abdominal musculature[36]. […] All the drugs were administered intraperitoneally.

COX-1 [7] = molecular target: T4, COX-1; settings: previously reported compounds 1 and 2; cited from earlier work

## O=C1NC(=O)C(=Cc2cn(C[C@H](O)Cn3c4ccccc4c(=O)c4ccccc43)c3ccccc23)C(=O)N1 [(S)-3a]
COX-2; 1 µM
  effect on LPS stimulated PGE2 production: inhibited LPS stimulated PGE2 production
COX-2; final conc 1 µM, LPS 10 µg mL^−1
  Production of PGE2, +LPS: 0.93 ± 0.1 ng/mL
[1]
  IC50: 0.2 ± 0.015 µM
[2]; 10 mg kg^−1
  reduction of carrageenan induced inflammation: 25%
[2]; end of 4th and 5th hour
  effect on paw inflammation compared with indomethacin: comparable to that of indomethacin
[2]; ip 30 min before carageenan, measured up to 5th hour
  effect on carageenan induced paw inflammation (paw thickness): Significant decrease
COX-1 [3]; 1 µM
  effect on ionophore stimulated TxB2 production: had no effect
COX-1 [3]; final conc 1 µM, A23187 50 µM
  Production of TXB2, +Ca^2+ Ionophore: 1.95 ± 0.01 ng/mL
COX-1 [4]
  TΔS: -0.829 kcal/mol
  ΔG: -4.304 kcal/mol
  ΔH: -5.134 kcal/mol

## COc1ccc2c(c1)c(CC(=O)O)c(C)n2C(=O)c1ccc(Cl)cc1 [Indomethacin, reference compound]
[5]; after 5 h of treatment
  effect on pre-existing paw edema (paw thickness): decrease paw edema
[5]; after 24 h of treatment
  duration of decrease in paw edema: sustained even after 24 h
[6]
  effect on number of acetic acid induced writhing vs control: significantly decreased

## CC1=NN(c2cccc(Cl)c2)C(=O)C1=Cc1cn(CCCOc2cc(O)c3c(=O)cc(-c4ccccc4)oc3c2)c2ccccc12 [Compound 1]
COX-1 [7]
  IC50: 118 ± 5.5 µM
